Source: PubChem BioAssay AID272 (DTP/NCI, 2004)
“And” between values parts separate entries of the source, which are not always exact repeats. Equal values may be shown once. Records with an inconclusive call do not appear.

Test system: Lewis lung carcinoma i.m., BDF1 mice, T/C %
Test: NCI In Vivo Anticancer Drug Screen. Data for tumor model Lewis Lung Carcinoma (intramuscular) in B6D2F1 (BDF1) mice
In short: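 Antitumour activity is assessed in transplanted-tumour mice. Endpoint is survival or tumour size, normalised to vehicle-dosed controls (T/C).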

[1] = endpoint: mean tumor weight (est.), dose: 0.5 mg/kg/injection, schedule: Q01DX011 (ip), vehicle: saline with Tween-80, higher = larger tumour
[2] = endpoint: mean tumor weight (est.), dose: 2.0 mg/kg/injection, schedule: Q01DX011 (ip), vehicle: saline with Tween-80, higher = larger tumour
[3] = endpoint: median survival time, dose: 0.5 mg/kg/injection, schedule: Q01DX011 (ip), vehicle: saline with Tween-80, higher = longer survival
[4] = endpoint: median survival time, dose: 1.0 mg/kg/injection, schedule: Q01DX011 (ip), vehicle: saline with Tween-80, higher = longer survival
[5] = endpoint: median survival time, dose: 2.0 mg/kg/injection, schedule: Q01DX011 (ip), vehicle: saline with Tween-80, higher = longer survival
[6] = endpoint: median survival time, dose: 12.5 mg/kg/injection, schedule: Q01DX011 (ip), vehicle: saline, higher = longer survival

In the case of `Cc1n(Cc2ccccc2)c2c([n+]1C)C(=O)c1ccccc1C2=O`, the T/C (endpoint: mean tumor weight (est.), dose: 0.13 mg/kg/injection, schedule: Q01DX011 (ip), vehicle: saline with Tween-80, higher = larger tumour) is reported as 48 % of control, the T/C (endpoint: mean tumor weight (est.), dose: 0.25 mg/kg/injection, schedule: Q01DX011 (ip), vehicle: saline with Tween-80, higher = larger tumour) is reported as 50 % of control and the T/C [1] is reported as 31 % of control. For the same compound, the T/C (endpoint: mean tumor weight (est.), dose: 1.0 mg/kg/injection, schedule: Q01DX011 (ip), vehicle: saline with Tween-80, higher = larger tumour) was 36 % of control, the T/C [2] was 43 % of control and the T/C (endpoint: median survival time, dose: 0.13 mg/kg/injection, schedule: Q01DX011 (ip), vehicle: saline with Tween-80, higher = longer survival) was 110 % of control. For the same compound, the T/C (endpoint: median survival time, dose: 0.25 mg/kg/injection, schedule: Q01DX011 (ip), vehicle: saline with Tween-80, higher = longer survival) was 100 % of control, the T/C [3] was 106 % of control and the T/C [4] was 89 % of control. For the same compound, the T/C [5] was 89 % of control.
`CC1=C2C(=CC(C)(C)[C@@H]2O)C(=O)[C@](C)(O)C12CC2` was tested, and the T/C (endpoint: mean tumor weight, dose: 0.1 mg/kg/injection, schedule: Q01DX011 (ip), vehicle: other, higher = larger tumour) was 95 % of control, the T/C (endpoint: mean tumor weight, dose: 0.2 mg/kg/injection, schedule: Q01DX011 (ip), vehicle: other, higher = larger tumour) was 84 % of control and the T/C (endpoint: mean tumor weight, dose: 0.4 mg/kg/injection, schedule: Q01DX011 (ip), vehicle: other, higher = larger tumour) was 21 % of control.
With `c1ccc(-c2csc3c4ccccc4c4ccccc4[n+]23)cc1` the T/C [1] was 102 % of control, the T/C [2] was 61 % of control and the T/C [3] was 89 % of control. For the same compound, the T/C [5] was 93 % of control.
For `O=C1CN(CCN2CC(=O)NC(=O)C2)CC(=O)N1`, the T/C (endpoint: mean tumor weight, dose: 25.0 mg/kg/injection, schedule: Q01DX011 (ip), vehicle: steriod suspending solution, higher = larger tumour) was 68 % of control and 80 % of control, the T/C (endpoint: median survival time, dose: 12.5 mg/kg/injection, schedule: Q01DX011 (ip), vehicle: steriod suspending solution, higher = longer survival) was 111 % of control and 117 % of control and the T/C (endpoint: median survival time, dose: 25.0 mg/kg/injection, schedule: Q01DX011 (ip), vehicle: steriod suspending solution, higher = longer survival) was 110 % of control and 114 % of control.
For `Cc1cc2c3ccc(C)[n+](C)c3ccc2n1C`, the T/C (endpoint: mean tumor weight (est.), dose: 0.6 mg/kg/injection, schedule: Q01DX011 (ip), vehicle: saline, higher = larger tumour) was 81 % of control, the T/C (endpoint: mean tumor weight (est.), dose: 1.25 mg/kg/injection, schedule: Q01DX011 (ip), vehicle: saline, higher = larger tumour) was 59 % of control and the T/C (endpoint: mean tumor weight (est.), dose: 2.5 mg/kg/injection, schedule: Q01DX011 (ip), vehicle: saline, higher = larger tumour) was 110 % of control.
In the case of `CCCCn1cnc2c(=S)nc[nH]c21`, the T/C (endpoint: mean tumor weight, dose: 1.56 mg/kg/injection, schedule: Q01DX011 (ip), vehicle: other, higher = larger tumour) is reported as 89 % of control, the T/C (endpoint: mean tumor weight, dose: 6.25 mg/kg/injection, schedule: Q01DX011 (ip), vehicle: other, higher = larger tumour) is reported as 85 % of control and the T/C (endpoint: median survival time, dose: 1.56 mg/kg/injection, schedule: Q01DX011 (ip), vehicle: other, higher = longer survival) is reported as 94 % of control and 104 % of control. For the same compound, the T/C (endpoint: median survival time, dose: 3.12 mg/kg/injection, schedule: Q01DX011 (ip), vehicle: other, higher = longer survival) was 100 % of control, the T/C (endpoint: median survival time, dose: 6.25 mg/kg/injection, schedule: Q01DX011 (ip), vehicle: other, higher = longer survival) was 97 % of control and 108 % of control and the T/C (endpoint: median survival time, dose: 12.5 mg/kg/injection, schedule: Q01DX011 (ip), vehicle: other, higher = longer survival) was 110 % of control. For the same compound, the T/C (endpoint: median survival time, dose: 25.0 mg/kg/injection, schedule: Q01DX011 (ip), vehicle: other, higher = longer survival) was 116 % of control.
With `O=C(CBr)OCCOc1ccccc1` the T/C (endpoint: mean tumor weight (est.), dose: 5.0 mg/kg/injection, schedule: Q01DX011 (ip), vehicle: saline with Tween-80, higher = larger tumour) was 85 % of control, the T/C (endpoint: mean tumor weight (est.), dose: 10.0 mg/kg/injection, schedule: Q01DX011 (ip), vehicle: saline with Tween-80, higher = larger tumour) was 93 % of control and the T/C (endpoint: mean tumor weight (est.), dose: 20.0 mg/kg/injection, schedule: Q01DX011 (ip), vehicle: saline with Tween-80, higher = larger tumour) was 85 % of control. The T/C (endpoint: median survival time, dose: 5.0 mg/kg/injection, schedule: Q01DX011 (ip), vehicle: saline with Tween-80, higher = longer survival) was 88 % of control, the T/C (endpoint: median survival time, dose: 10.0 mg/kg/injection, schedule: Q01DX011 (ip), vehicle: saline with Tween-80, higher = longer survival) was 104 % of control and the T/C (endpoint: median survival time, dose: 20.0 mg/kg/injection, schedule: Q01DX011 (ip), vehicle: saline with Tween-80, higher = longer survival) was 108 % of control.
In the case of `CNC(=S)N/N=C/CCC/C=N/NC(=S)NC`, the T/C (endpoint: mean tumor weight (est.), dose: 18.75 mg/kg/injection, schedule: Q01DX011 (ip), vehicle: saline with Tween-80, higher = larger tumour) is reported as 112 % of control, the T/C (endpoint: mean tumor weight (est.), dose: 37.5 mg/kg/injection, schedule: Q01DX011 (ip), vehicle: saline with Tween-80, higher = larger tumour) is reported as 91 % of control and the T/C (endpoint: mean tumor weight (est.), dose: 75.0 mg/kg/injection, schedule: Q01DX011 (ip), vehicle: saline with Tween-80, higher = larger tumour) is reported as 53 % of control. For the same compound, the T/C (endpoint: median survival time, dose: 18.75 mg/kg/injection, schedule: Q01DX011 (ip), vehicle: saline with Tween-80, higher = longer survival) was 90 % of control, the T/C (endpoint: median survival time, dose: 37.5 mg/kg/injection, schedule: Q01DX011 (ip), vehicle: saline with Tween-80, higher = longer survival) was 94 % of control and the T/C (endpoint: median survival time, dose: 75.0 mg/kg/injection, schedule: Q01DX011 (ip), vehicle: saline with Tween-80, higher = longer survival) was 102 % of control.
`C/C(=C\COc1ccc2ccc(=O)oc2c1)C1=CC(=O)C(C)(C)O1` was tested, and the T/C (endpoint: mean tumor weight, dose: 100.0 mg/kg/injection, schedule: Q01DX011 (ip), vehicle: saline, higher = larger tumour) was 55 % of control, the T/C (endpoint: mean tumor weight, dose: 200.0 mg/kg/injection, schedule: Q01DX011 (ip), vehicle: saline, higher = larger tumour) was 47 % of control and the T/C (endpoint: mean tumor weight, dose: 400.0 mg/kg/injection, schedule: Q01DX011 (ip), vehicle: saline, higher = larger tumour) was 62 % of control. The T/C (endpoint: median survival time, dose: 100.0 mg/kg/injection, schedule: Q01DX011 (ip), vehicle: saline, higher = longer survival) was 108 % of control, the T/C (endpoint: median survival time, dose: 200.0 mg/kg/injection, schedule: Q01DX011 (ip), vehicle: saline, higher = longer survival) was 100 % of control and the T/C (endpoint: median survival time, dose: 400.0 mg/kg/injection, schedule: Q01DX011 (ip), vehicle: saline, higher = longer survival) was 102 % of control.
In the case of `Cn1c(Cl)nc2c(Cl)nc(Cl)nc21`, the T/C [4] is reported as 102 % of control, the T/C [5] is reported as 106 % of control and the T/C (endpoint: median survival time, dose: 4.0 mg/kg/injection, schedule: Q01DX011 (ip), vehicle: saline with Tween-80, higher = longer survival) is reported as 102 % of control. For the same compound, the T/C (endpoint: median survival time, dose: 8.0 mg/kg/injection, schedule: Q01DX011 (ip), vehicle: saline with Tween-80, higher = longer survival) was 104 % of control and the T/C (endpoint: median survival time, dose: 16.0 mg/kg/injection, schedule: Q01DX011 (ip), vehicle: saline with Tween-80, higher = longer survival) was 110 % of control.
In the case of `CS(=O)(=O)OCCC(=O)N1CCN(C(=O)CCOS(C)(=O)=O)CC1`, the T/C (endpoint: mean tumor weight, dose: 12.5 mg/kg/injection, schedule: Q01DX011 (ip), vehicle: saline, higher = larger tumour) is reported as 79 % of control, the T/C (endpoint: mean tumor weight, dose: 25.0 mg/kg/injection, schedule: Q01DX011 (ip), vehicle: saline, higher = larger tumour) is reported as 60 % of control and the T/C (endpoint: mean tumor weight, dose: 50.0 mg/kg/injection, schedule: Q01DX011 (ip), vehicle: saline, higher = larger tumour) is reported as 61 % of control. For the same compound, the T/C [6] was 104 % of control and the T/C (endpoint: median survival time, dose: 25.0 mg/kg/injection, schedule: Q01DX011 (ip), vehicle: saline, higher = longer survival) was 97 % of control.
For `Cc1c2ccncc2c(C)c2c1[nH]c1ccccc12`, the T/C (endpoint: median survival time, dose: 1.56 mg/kg/injection, schedule: Q01DX011 (ip), vehicle: water, higher = longer survival) was 100 % of control, the T/C (endpoint: median survival time, dose: 3.12 mg/kg/injection, schedule: Q01DX011 (ip), vehicle: water, higher = longer survival) was 100 % of control and the T/C (endpoint: median survival time, dose: 6.25 mg/kg/injection, schedule: Q01DX011 (ip), vehicle: water, higher = longer survival) was 108 % of control.
`CCC[CH2][Sn](=[S])[CH2]CCC` was tested, and the T/C (endpoint: mean tumor weight (est.), dose: 6.25 mg/kg/injection, schedule: Q01DX011 (ip), vehicle: saline with Tween-80, higher = larger tumour) was 103 % of control, the T/C (endpoint: mean tumor weight (est.), dose: 12.5 mg/kg/injection, schedule: Q01DX011 (ip), vehicle: saline with Tween-80, higher = larger tumour) was 77 % of control and the T/C (endpoint: mean tumor weight (est.), dose: 25.0 mg/kg/injection, schedule: Q01DX011 (ip), vehicle: saline with Tween-80, higher = larger tumour) was 55 % of control. For the same compound, the T/C (endpoint: median survival time, dose: 6.25 mg/kg/injection, schedule: Q01DX011 (ip), vehicle: saline with Tween-80, higher = longer survival) was 102 % of control, the T/C (endpoint: median survival time, dose: 12.5 mg/kg/injection, schedule: Q01DX011 (ip), vehicle: saline with Tween-80, higher = longer survival) was 116 % of control and the T/C (endpoint: median survival time, dose: 25.0 mg/kg/injection, schedule: Q01DX011 (ip), vehicle: saline with Tween-80, higher = longer survival) was 112 % of control.
`N[C@H](C(=O)O)[C@H]1ON=C(Cl)[C@@H]1O` was tested, and the T/C (endpoint: median survival time, dose: 8.0 mg/kg/injection, schedule: Q01DX013 (ip), vehicle: saline, higher = longer survival) was 92 % of control and the T/C (endpoint: median survival time, dose: 16.0 mg/kg/injection, schedule: Q01DX013 (ip), vehicle: saline, higher = longer survival) was 107 % of control.
For `COC(=O)[CH](C[N+](=O)[O-])[Hg][Cl]` (stereo not given), the T/C (endpoint: mean tumor weight (est.), dose: 3.12 mg/kg/injection, schedule: Q01DX011 (ip), vehicle: saline, higher = larger tumour) was 79 % of control, the T/C (endpoint: mean tumor weight (est.), dose: 6.25 mg/kg/injection, schedule: Q01DX011 (ip), vehicle: saline, higher = larger tumour) was 69 % of control and the T/C (endpoint: mean tumor weight (est.), dose: 12.5 mg/kg/injection, schedule: Q01DX011 (ip), vehicle: saline, higher = larger tumour) was 71 % of control. The T/C (endpoint: median survival time, dose: 3.12 mg/kg/injection, schedule: Q01DX011 (ip), vehicle: saline, higher = longer survival) was 107 % of control, the T/C (endpoint: median survival time, dose: 6.25 mg/kg/injection, schedule: Q01DX011 (ip), vehicle: saline, higher = longer survival) was 115 % of control and the T/C [6] was 88 % of control.
